Common to all, as to type: in vivo
One series concerns Monochoria vaginalis. As to the kind of experiment: Test Example 2: herbicidal activity, application during weed generation in submerged conditions (symbol C). Particulars: Table 23; application herbicide amount 320 g/ha; grade 0-5 by criteria of Test Example 1. A digest of the protocol: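 Scoring of herbicidal effect took place 3 weeks after treatment, using the criteria of the earlier test. Treatment was water-surface application of diluted emulsifiable compound at a set dose. Plants were at one- to two-leaf stage in submerged alluvial soil (4 cm depth), greenhouse 25-30° C.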

Another series deals with Amaranthus retroflexus. As to the kind of experiment: Test Example 4: herbicidal effect by soil treatment (symbol N). Particulars: application herbicide amount 320 g/ha. A digest of the protocol:
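Seeds were sown in sterilized diluvial soil, covered with about 1.5 cm of soil, and the soil surface was sprayed with a water-diluted emulsion of the compound at a predetermined rate. Plants grew in a greenhouse at 25° C. to 30° C.; effects were scored visually 3 weeks after application.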

A further series has as its system corn. In words: Test Example 4: effect on crop by soil treatment (symbol c). Particulars: application herbicide amount 320 g/ha. In short, it runs like this:
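Crop seed is sown in spots together with several weed species in a box of sterilized diluvial soil. It is covered by about 1.5 cm of soil and kept in a greenhouse held between 25° C. and 30° C.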

A further series concerns soybean. In words: Test Example 4: effect on crop by soil treatment (symbol d). Particulars: application herbicide amount 320 g/ha. A digest of the protocol:
(§1)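 Sterilized diluvial soil, spot sowing, ~1.5 cm soil cover; greenhouse 25–30° C.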

Another series has as its system rice. In words: Test Example 4: effect on crop by soil treatment (symbol b). Particulars: application herbicide amount 320 g/ha. A digest of the protocol: as §1
For another series, the system named is rice plant. In words: Test Example 5: effect on crop by foliage application, plastic box (symbol b). Particulars: 320 g/ha, 3 weeks after application. In short, it runs like this: (§2)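 Greenhouse test at 25° C. to 30° C. Seeds of crops and weeds were spot-sown in boxes of sterilized diluvial soil under roughly 1.5 cm soil cover, then grown for foliage treatment.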

A further series concerns wheat. As to the kind of experiment: Test Example 5: effect on crop by foliage application, plastic box (symbol e). Particulars: 320 g/ha, 3 weeks after application. A digest of the protocol: as §2

The structures appear in SMILES notation.

As to `CON=C(C)CC1CC(O)=C(c2c(C)cc(OCc3ccncc3)cc2C)C1=O` (mixture of isomers) [6-053], in the series on Monochoria vaginalis, the “Herbicidal effect grade, C: Monochoria vaginalis” value (“Herbicidal effect grade, C” for short) was 2 (Herbicidal ratio of 20% or higher and lower than 40%). The “N: Amaranthus retroflexus, herbicidal effect grade” value in the series on Amaranthus retroflexus is given as 0 (Herbicidal ratio of 5% or lower (almost no effect)). Besides, in the series on corn, the “c: corn, effect on crop grade” value was 1 (Herbicidal ratio of 5% or higher and lower than 20%). Besides, the “d: soybean, effect on crop grade” value in the series on soybean is 0 (Herbicidal ratio of 5% or lower (almost no effect)). The “b: directly sowed rice plant, effect on crop grade” value was 2 (Herbicidal ratio of 20% or higher and lower than 40%) in the series on rice; 3 (Herbicidal ratio of 40% or higher and lower than 70%) in the series with rice plant. Moreover, the “e: wheat, effect on crop grade” value in the series with wheat is on record as 0 (Herbicidal ratio of 5% or lower (almost no effect)).

For the compound `CON=C(C)CC1CC(O)=C(c2c(C)cc(-c3ccc(F)c(Cl)c3)cc2C)C1=O` (centres unmarked) [6-085], the “Herbicidal effect grade, C” value in the series with Monochoria vaginalis is 1 (Herbicidal ratio of 5% or higher and lower than 20%). In addition, the “Herbicidal effect grade, N: Amaranthus retroflexus” value (shortened to “Herbicidal effect grade, N”) with Amaranthus retroflexus was 5 (Herbicidal ratio of 90% or more (almost completely withered)). Moreover, in the series on corn, the “Effect on crop grade, c: corn” value is 1 (Herbicidal ratio of 5% or higher and lower than 20%). The “Effect on crop grade, d: soybean” value in the series on soybean is listed as 5 (Herbicidal ratio of 90% or more (almost completely withered)). Moreover, in the series on rice, the “Effect on crop grade, b: directly sowed rice plant” value (from here on “Effect on crop grade, b”) is 1 (Herbicidal ratio of 5% or higher and lower than 20%). In addition, the “b: directly sowed rice plant, effect on crop (criteria of Test Example 1)” value with rice plant is 5 (Herbicidal ratio of 90% or more (almost completely withered)). In the series with wheat, the “e: wheat, effect on crop (criteria of Test Example 1)” value is reported as 5 (Herbicidal ratio of 90% or more (almost completely withered)).

Consider `CON=C(C)CC1CC(OC(=O)COc2ccccc2)=C(c2c(C)cc(C)cc2OC)C1=O` (centres unmarked) [6-091], for which the “Herbicidal effect grade, C” value in the series with Monochoria vaginalis was 3 (Herbicidal ratio of 40% or higher and lower than 70%). The “Herbicidal effect grade, N” value in the series with Amaranthus retroflexus was 4 (Herbicidal ratio of 70% or higher and lower than 90%). Further, in the series on corn, the “Effect on crop grade, c: corn” value is on record as 5 (Herbicidal ratio of 90% or more (almost completely withered)). In addition, the “Effect on crop grade, d: soybean” value in the series on soybean was 1 (Herbicidal ratio of 5% or higher and lower than 20%). In the series on rice, the “Effect on crop grade, b” value is listed as 5 (Herbicidal ratio of 90% or more (almost completely withered)). In addition, in the series with rice plant, the “b: directly sowed rice plant, effect on crop (criteria of Test Example 1)” value is on record as 5 (Herbicidal ratio of 90% or more (almost completely withered)). The “e: wheat, effect on crop (criteria of Test Example 1)” value in the series on wheat was 5 (Herbicidal ratio of 90% or more (almost completely withered)).

`CON=C(C)CC1CC(O)=C(c2c(C)cc(-c3ccc(Cl)cc3F)cc2C)C1=O` (centres unmarked) [6-084]: the “Herbicidal effect grade, C” value with Monochoria vaginalis was 0 (Herbicidal ratio of 5% or lower (almost no effect)). Moreover, the “N: Amaranthus retroflexus, herbicidal effect grade” value in the series on Amaranthus retroflexus is 4 (Herbicidal ratio of 70% or higher and lower than 90%). In addition, the “c: corn, effect on crop grade” value in the series with corn is given as 0 (Herbicidal ratio of 5% or lower (almost no effect)). Further, the “d: soybean, effect on crop grade” value in the series on soybean is 5 (Herbicidal ratio of 90% or more (almost completely withered)). The “b: directly sowed rice plant, effect on crop grade” value in the series on rice is 2 (Herbicidal ratio of 20% or higher and lower than 40%). In addition, the “b: directly sowed rice plant, effect on crop (criteria of Test Example 1)” value with rice plant is 5 (Herbicidal ratio of 90% or more (almost completely withered)). Moreover, the “e: wheat, effect on crop (criteria of Test Example 1)” value in the series with wheat is 4 (Herbicidal ratio of 70% or higher and lower than 90%).

For the compound `CON=C(C)CC1CC(OC(=O)C(C)(C)CCl)=C(c2c(C)cc(C)cc2C)C1=O` (centres unmarked) [1-016], the “Herbicidal effect grade, C” value in the series with Monochoria vaginalis is 3 (Herbicidal ratio of 40% or higher and lower than 70%). The “N (Amaranthus retroflexus) herbicidal effect grade” value in the series on Amaranthus retroflexus is 5 (Herbicidal ratio of 90% or more (almost completely withered)). For the same compound, the “c (corn) effect on crop grade” value with corn was 4 (Herbicidal ratio of 70% or higher and lower than 90%). For the same compound, the “d (soybean) effect on crop grade” value in the series with soybean is 3 (Herbicidal ratio of 40% or higher and lower than 70%). For the same compound, in the series with rice, the “b (directly sowed rice plant) effect on crop grade” value is 5 (Herbicidal ratio of 90% or more (almost completely withered)). Moreover, the “b: directly sowed rice plant, effect on crop grade” value in the series on rice plant is listed as 5 (Herbicidal ratio of 90% or more (almost completely withered)). The “e: wheat, effect on crop grade” value in the series with wheat is reported as 5 (Herbicidal ratio of 90% or more (almost completely withered)).

In the case of `C=CCON=C(C)CC1CC(O)=C(c2c(C)cc(C)cc2C)C1=O` (centres unmarked) [1-018], the “Herbicidal effect grade, C” value in the series with Monochoria vaginalis was 3 (Herbicidal ratio of 40% or higher and lower than 70%). Further, in the series on Amaranthus retroflexus, the “N (Amaranthus retroflexus) herbicidal effect grade” value is 2 (Herbicidal ratio of 20% or higher and lower than 40%). Further, the “c (corn) effect on crop grade” value with corn is 4 (Herbicidal ratio of 70% or higher and lower than 90%). Besides, the “d (soybean) effect on crop grade” value in the series on soybean was 0 (Herbicidal ratio of 5% or lower (almost no effect)). In addition, in the series with rice, the “b (directly sowed rice plant) effect on crop grade” value is 5 (Herbicidal ratio of 90% or more (almost completely withered)). In addition, the “b: directly sowed rice plant, effect on crop grade” value in the series with rice plant was 5 (Herbicidal ratio of 90% or more (almost completely withered)). For the same compound, the “e: wheat, effect on crop grade” value in the series with wheat was 5 (Herbicidal ratio of 90% or more (almost completely withered)).

With `CC(=O)CC1CC(O)=C(c2c(C)cc(Br)cc2C)C1=O` (centres unmarked) [7-002], in the series with Monochoria vaginalis, the “Herbicidal effect grade, C” value was 0 (Herbicidal ratio of 5% or lower (almost no effect)). Also, the “Herbicidal effect grade, N” value with Amaranthus retroflexus was 0 (Herbicidal ratio of 5% or lower (almost no effect)). The “Effect on crop grade, c: corn” value with corn is listed as 0 (Herbicidal ratio of 5% or lower (almost no effect)). In the series on soybean, the “Effect on crop grade, d: soybean” value is 0 (Herbicidal ratio of 5% or lower (almost no effect)). In addition, in the series with rice, the “Effect on crop grade, b” value was 5 (Herbicidal ratio of 90% or more (almost completely withered)). Besides, the “b: directly sowed rice plant, effect on crop (criteria of Test Example 1)” value in the series on rice plant is 5 (Herbicidal ratio of 90% or more (almost completely withered)). Further, in the series on wheat, the “e: wheat, effect on crop (criteria of Test Example 1)” value is listed as 0 (Herbicidal ratio of 5% or lower (almost no effect)).

As for `CON=C(C)CC1CC(OC(=O)C2CC2)=C(c2c(C)cc(C)cc2C)C1=O` (centres unmarked) [1-015], the “Herbicidal effect grade, C” value in the series on Monochoria vaginalis was 4 (Herbicidal ratio of 70% or higher and lower than 90%). The “N (Amaranthus retroflexus) herbicidal effect grade” value with Amaranthus retroflexus is recorded as 5 (Herbicidal ratio of 90% or more (almost completely withered)). The “c (corn) effect on crop grade” value with corn is 4 (Herbicidal ratio of 70% or higher and lower than 90%). In the series with soybean, the “d (soybean) effect on crop grade” value was 3 (Herbicidal ratio of 40% or higher and lower than 70%). Also, the “b (directly sowed rice plant) effect on crop grade” value in the series on rice is listed as 5 (Herbicidal ratio of 90% or more (almost completely withered)). Also, the “b: directly sowed rice plant, effect on crop grade” value with rice plant is recorded as 5 (Herbicidal ratio of 90% or more (almost completely withered)). Moreover, in the series on wheat, the “e: wheat, effect on crop grade” value is reported as 5 (Herbicidal ratio of 90% or more (almost completely withered)).

`COc1ccc(-c2cc(C)c(C3=C(O)CC(CC(C)=O)C3=O)c(C)c2)cc1` (centres unmarked) [7-006]: the “Herbicidal effect grade, C” value in the series with Monochoria vaginalis is 0 (Herbicidal ratio of 5% or lower (almost no effect)). For the same compound, the “Herbicidal effect grade, N” value in the series with Amaranthus retroflexus is listed as 0 (Herbicidal ratio of 5% or lower (almost no effect)). For the same compound, the “Effect on crop grade, c: corn” value in the series with corn was 0 (Herbicidal ratio of 5% or lower (almost no effect)). In the series on soybean, the “Effect on crop grade, d: soybean” value was 1 (Herbicidal ratio of 5% or higher and lower than 20%). Besides, the “Effect on crop grade, b” value in the series with rice was 3 (Herbicidal ratio of 40% or higher and lower than 70%). The “b: directly sowed rice plant, effect on crop (criteria of Test Example 1)” value in the series on rice plant is given as 5 (Herbicidal ratio of 90% or more (almost completely withered)). Moreover, in the series with wheat, the “e: wheat, effect on crop (criteria of Test Example 1)” value is on record as 0 (Herbicidal ratio of 5% or lower (almost no effect)).

Consider `CON=C(C)CC1CC(OCOC(=O)c2ccccc2)=C(c2c(C)cc(-c3ccc(Cl)cc3)cc2C)C1=O` (centres unmarked) [6-083], for which, in the series with Monochoria vaginalis, the “Herbicidal effect grade, C” value is 4 (Herbicidal ratio of 70% or higher and lower than 90%). Moreover, in the series with Amaranthus retroflexus, the “N: Amaranthus retroflexus, herbicidal effect grade” value was 0 (Herbicidal ratio of 5% or lower (almost no effect)). Besides, in the series on corn, the “c: corn, effect on crop grade” value is recorded as 0 (Herbicidal ratio of 5% or lower (almost no effect)). The “d: soybean, effect on crop grade” value in the series with soybean is listed as 0 (Herbicidal ratio of 5% or lower (almost no effect)). Also, the “b: directly sowed rice plant, effect on crop grade” value in the series with rice was 0 (Herbicidal ratio of 5% or lower (almost no effect)). Further, the “b: directly sowed rice plant, effect on crop (criteria of Test Example 1)” value with rice plant is on record as 5 (Herbicidal ratio of 90% or more (almost completely withered)). The “e: wheat, effect on crop (criteria of Test Example 1)” value with wheat was 4 (Herbicidal ratio of 70% or higher and lower than 90%).

Consider `CON=C(C)CC1CC(OC(=O)N2CCCC2)=C(c2c(C)cc(C)cc2OC)C1=O` (centres unmarked) [6-110], for which, in the series with Monochoria vaginalis, the “Herbicidal effect grade, C” value is 0 (Herbicidal ratio of 5% or lower (almost no effect)). The “Herbicidal effect grade, N” value in the series on Amaranthus retroflexus is 0 (Herbicidal ratio of 5% or lower (almost no effect)). Further, the “Effect on crop grade, c: corn” value with corn is reported as 0 (Herbicidal ratio of 5% or lower (almost no effect)). The “Effect on crop grade, d: soybean” value in the series with soybean is given as 0 (Herbicidal ratio of 5% or lower (almost no effect)). Further, in the series with rice, the “Effect on crop grade, b” value was 0 (Herbicidal ratio of 5% or lower (almost no effect)). Further, the “b: directly sowed rice plant, effect on crop (criteria of Test Example 1)” value with rice plant is given as 5 (Herbicidal ratio of 90% or more (almost completely withered)). Besides, the “e: wheat, effect on crop (criteria of Test Example 1)” value in the series on wheat was 4 (Herbicidal ratio of 70% or higher and lower than 90%).

These data come from patent US11000033B2, “Ketone or oxime compound, and herbicide” (NISSAN CHEMICAL CORPORATION, priority 2014, dated 2021).
